Where “and” joins values, the source holds several entries; their conditions need not be identical. Equal entries are not always repeated. Where two headings read alike, the source gives them in different places.
Assays:
Shaker-IR-P475A [1] = molecular target: T1, Shaker-IR-P475A (Drosophila melanogaster, UniProt P08510, DEL6-46/P475A); assay: cell-based; format: cell-based; conditions: for GV curve V1/2: from tail currents; for Hill coefficient of weighted τIKac concentration-response curve / IC50: weighted τIKac at +100 mV; for IC50: read-out: IC50 of acceleration of weighted τIKac
T1 construct: expressed in transfected cells; host or cells: HEK293
Text: (§1) The N-terminal deletion Δ6–46 Shaker clone (Shaker-IR), which removes fast inactivation, was used in this study. The W434F mutation, which yields a non-conducting Shaker-IR-W434F channel, and the P475A mutation were introduced as described previously. All channel constructs were expressed using a pGW1 expression vector. The plasmid that codes for the green fluorescent protein, used to identify transfected cells, was purchased from Clontech (Palo Alto, CA, USA). Plasmid DNA for mammalian expression was obtained by amplification in XL2 Bluescript cells (Stratagene), and afterwards isolated using the endotoxin-free Maxiprep kit (Macherey-Nagel, Düren, Germany). The cDNA concentration was determined by UV absorption.
(§2) HEK293 cells were cultured in Modified Eagle’s Medium (MEM) supplemented with 10% fetal bovine serum, 1% penicillin/streptomycin and 1% non-essential amino acids (Invitrogen, Carlsbad, CA, USA). Cells were transiently transfected with the appropriate channel DNA plasmids using polyethyleneimine that was purchased from Sigma-Aldrich (St Louis, MO, USA), details of procedure was described previously.
(§3) Whole-cell ionic IK or gating IG current measurements were done at room temperature (20 to 23 °C) using an Axopatch-200B amplifier and the recordings were digitized with a Digidata-1200 A acquisition system (Molecular Devices, Sunnyvale, CA, USA). Both IK and IG recordings were digitized at 10 kHz sampling rate after passing a 5 KHz Bessel low-pass filter. Command voltages and data storage were controlled with pClamp10 software. Patch pipettes were pulled from 1.2 mm quick-fill borosilicate glass capillaries (World Precision Instruments, Sarasota, FL, USA) with a P-2000 puller (Sutter Instrument Co., Novato, CA, USA) and afterwards heat-polished, to have patch pipettes with a resistance of approximately 1.5 MOhm determined with the filled pipette in the bath solution.
(§4) For IK measurements the cells were constantly superfused with external bath solution that contained (in mM) NaCl 130, KCl 4, CaCl2 1.8, MgCl2 1, HEPES 10, Glucose 10, adjusted to pH 7.35 with NaOH. The patch pipettes were filled with internal solution containing (in mM) KCl 110, K4BAPTA 5, K2ATP 5, MgCl2 1, HEPES 10, adjusted to pH 7.2 with KOH. For IG measurements the monovalent cations were replaced with N-methyl-D-glucamine (NMG^+). The bath solution contained (in mM) NMG^+ 140, HEPES 10, Glucose 10, MgCl2 1, CaCl2 1.8, titrated to pH 7.35 with HCl. The pipette solution contained (in mM) NMG^+ 140, HEPES 10, EGTA 10, MgCl2 1, titrated to pH 7.2 with HCl. Junction potentials were zeroed with the filled pipette in the bath solution and experiments were excluded from analysis if the voltage error estimate exceeded 5 mV after series resistance compensation. For IG measurements, leak currents and remaining capacitive currents were subtracted online using a −P/6 protocol (using a holding potential of −95 mV). IK recordings were not leak corrected.
(§5) For the highest concentration of 1-BuOH tested (300 mM), the osmolarity of the extracellular solution for IK or IG recordings increased by approximately 300 mOsm resulting in a total osmolarity of ~640 mOsm. […] All compounds were applied to the cells using a pressurized fast perfusion system equipped with a quartz micromanifold (ALA scientific, Farmingdale, NY, USA), allowing rapid exchange of the external solutions.
(§6) Details of pulse protocols used to elicit IK or IG recordings were adjusted to determine the biophysical properties of each construct adequately and are shown in the figures or described in legends. All the graphs were built using SigmaPlot 11.0 (Systat Software Inc., San Jose, CA, USA).

Shaker-IR channel = molecular target: T2, Shaker-IR channel (Drosophila melanogaster, UniProt P08510, DEL6-46); assay: cell-based; format: cell-based; conditions: for GV curve V1/2: voltage dependence of gate opening; for IC50: normalized steady-state IK amplitude at 0 mV, Hill fit, read-out: IC50 of ionic current (IK) inhibition; for Hill coefficient of IK inhibition concentration-response curve: steady-state IK at 0 mV
T2 construct: expressed in transfected cells; host or cells: HEK293
Text: as §1, §2, §3, §4, §5, §6

Shaker-IR-W434F [2] = molecular target: T3, Shaker-IR-W434F (Drosophila melanogaster, UniProt P08510, DEL6-46/W434F); assay: cell-based; format: cell-based; conditions: for QV curve V1/2: voltage dependence of VSD movement; for gating charge immobilized (reduction in gating charge movement): general statement, no concentration given
T3 construct: expressed in transfected cells; host or cells: HEK293
Text: as §1, §2, §3, §4, §5, §6

Shaker-IR-W434F-P475A = molecular target: T4, Shaker-IR-W434F-P475A (Drosophila melanogaster, UniProt P08510, DEL6-46/P475A/W434F); format: cell-based
T4 construct: expressed in transfected cells; host or cells: HEK293
Text: as §1, §2, §3, §4, §5, §6

Shaker-IR-W434F [3] = molecular target: T3, Shaker-IR-W434F; set-up: method as in PMID 11463634; conditions: cited from earlier work
Shaker-IR-P475A [4] = molecular target: T1, Shaker-IR-P475A; conditions: cited from earlier work
[5] = integrated steady-state IGac normalized to control, read-out: IC50 of reduction in total gating charge
[6] = weighted τIGdeac at −90 mV, read-out: IC50 of acceleration of VSD deactivation time constant (τIGdeac)

T4 sequence (P08510 other isoform, or with tags, fused parts or gaps DEL6-46/W434F/P475A): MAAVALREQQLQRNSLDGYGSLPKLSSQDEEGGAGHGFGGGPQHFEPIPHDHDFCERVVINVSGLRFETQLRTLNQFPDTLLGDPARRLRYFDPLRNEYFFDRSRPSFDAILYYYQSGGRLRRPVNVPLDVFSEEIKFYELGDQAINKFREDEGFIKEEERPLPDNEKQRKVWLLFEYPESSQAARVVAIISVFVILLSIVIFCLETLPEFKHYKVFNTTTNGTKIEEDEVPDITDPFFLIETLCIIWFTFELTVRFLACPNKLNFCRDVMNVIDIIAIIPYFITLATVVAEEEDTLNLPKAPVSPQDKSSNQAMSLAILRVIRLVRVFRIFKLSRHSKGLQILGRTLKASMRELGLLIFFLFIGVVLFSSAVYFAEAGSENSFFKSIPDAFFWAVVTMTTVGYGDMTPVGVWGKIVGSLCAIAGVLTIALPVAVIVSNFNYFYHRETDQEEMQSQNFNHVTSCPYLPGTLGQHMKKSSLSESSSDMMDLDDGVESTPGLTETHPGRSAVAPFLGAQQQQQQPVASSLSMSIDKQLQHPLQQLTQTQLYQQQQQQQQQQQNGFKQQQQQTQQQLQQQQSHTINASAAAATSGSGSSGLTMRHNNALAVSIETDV
T3 sequence (P08510 other isoform, or with tags, fused parts or gaps DEL6-46/W434F): as the sequence (P08510 other isoform, or with tags, fused parts or gaps DEL6-46/W434F/P475A) above, with A434P counted along it
T1 sequence (P08510 other isoform, or with tags, fused parts or gaps DEL6-46/P475A): as the sequence (P08510 other isoform, or with tags, fused parts or gaps DEL6-46/W434F/P475A) above, with F393W counted along it
T2 sequence (P08510 other isoform, or with tags, fused parts or gaps DEL6-46): as the sequence (P08510 other isoform, or with tags, fused parts or gaps DEL6-46/W434F/P475A) above, with F393W, A434P counted along it

With CCCCO [1-BuOH, 1-Butanol] the “effect on IK of the P475A mutant” value (Shaker-IR-P475A [1]) was “concentration-dependent increase in IK”, the “GV curve slope factor k” value (Shaker-IR-P475A [1]; 100 mM 1-BuOH) was 9.6 ± 0.4 mV and the “GV curve V1/2” value (Shaker-IR-P475A [1]; 100 mM 1-BuOH) was 62 ± 1 mV. The “GV curve slope factor k” value (Shaker-IR-P475A [1]; 300 mM 1-BuOH) was 6.8 ± 0.7 mV, the “GV curve V1/2” value (Shaker-IR-P475A [1]; 300 mM 1-BuOH) was 50 ± 1 mV and the “Hill coefficient of weighted τIKac concentration-response curve” value (Shaker-IR-P475A [1]) was 1.5 ± 0.4. For the same compound, the IC50 (Shaker-IR-P475A [1]) was 58.8 ± 3 mM, the “GV curve slope factor k” value (Shaker-IR channel; 50 mM 1-BuOH) was 5.1 ± 0.7 mV and the “GV curve V1/2” value (Shaker-IR channel; 50 mM 1-BuOH) was −28.5 ± 2.3 mV. The “time constant of current recovery upon wash-out” value (Shaker-IR channel; after 50 mM 1-BuOH) was 7.6 ± 2.1 s, the “time constant of development of IK inhibition” value (Shaker-IR channel; application of 50 mM 1-BuOH) was 5.2 ± 1.2 s and the IC50 (Shaker-IR channel) was ~50 mM and 50 mM and 51.8 mM. The “Hill coefficient of IK inhibition concentration-response curve” value (Shaker-IR channel) was 0.92 ± 0.04, the “Hill coefficient of gating charge reduction concentration-response curve” value (Shaker-IR-W434F [2]) was 1.5 ± 0.2 and the “maximal reduction in charge movement” value (Shaker-IR-W434F [2]; 300 mM 1-BuOH) was “approximately 10%”. For the same compound, the “τIGdeac at −120 mV” value (Shaker-IR-W434F [2]; 300 mM 1-BuOH) was 0.48 ± 0.08 ms, the “extra reduction of gating charge movement on addition to 4-AP” value (Shaker-IR-W434F [2]; 300 mM 1-BuOH in continued presence of 1 mM 4-AP) was “did not result in an extra reduction of gating charge movement” and the “QV curve V1/2” value (Shaker-IR-W434F [2]; 300 mM 1-BuOH) was −32.4 ± 3.4 mV. The “gating charge immobilized (reduction in gating charge movement)” value (Shaker-IR-W434F [2]) was 10%, the IC50 (Shaker-IR-W434F [2]; [5]) was 88 ± 2 mM and the “Hill coefficient of τIGdeac concentration-response curve” value (Shaker-IR-W434F [2]; weighted τIGdeac at −90 mV) was 1.3 ± 0.4. For the same compound, the IC50 (Shaker-IR-W434F [2]; [6]) was 67 ± 1 mM, the “QV curve 1st comp V1/2” value (Shaker-IR-W434F-P475A; 300 mM 1-BuOH) was −39.2 ± 1.4 mV and the “QV curve 1st comp k” value (Shaker-IR-W434F-P475A; 300 mM 1-BuOH) was 16.2 ± 1.2 mV. The “QV curve 2nd comp V1/2” value (Shaker-IR-W434F-P475A; 300 mM 1-BuOH) was 52.2 ± 1.2 mV and the “QV curve 2nd comp k” value (Shaker-IR-W434F-P475A; 300 mM 1-BuOH) was 9.1 ± 1.1 mV.

In the case of CCCCCCO [1-HeOH, 1-Hexanol], the “effect on IK of the P475A mutant” value (Shaker-IR-P475A [1]) is reported as “concentration-dependent increase in IK”, the “GV curve slope factor k” value (Shaker-IR-P475A [1]; 10 mM 1-HeOH) is reported as 10.7 ± 0.6 mV and the “GV curve V1/2” value (Shaker-IR-P475A [1]; 10 mM 1-HeOH) is reported as 64 ± 1 mV. The “GV curve slope factor k” value (Shaker-IR-P475A [1]; 30 mM 1-HeOH) was 6.6 ± 0.6 mV, the “GV curve V1/2” value (Shaker-IR-P475A [1]; 30 mM 1-HeOH) was 49 ± 1 mV and the “Hill coefficient of weighted τIKac concentration-response curve” value (Shaker-IR-P475A [1]) was 1.3 ± 0.3. The IC50 (Shaker-IR-P475A [1]) was 4.6 ± 0.8 mM, the “GV curve slope factor k” value (Shaker-IR channel; 3 mM 1-HeOH) was 7.5 ± 0.9 mV and the “GV curve V1/2” value (Shaker-IR channel; 3 mM 1-HeOH) was −25.4 ± 1.2 mV. For the same compound, the “time constant of current recovery upon wash-out” value (Shaker-IR channel; after 3 mM 1-HeOH) was 4.8 ± 1.7 s, the “time constant of development of IK inhibition” value (Shaker-IR channel; application of 3 mM 1-HeOH) was 3.7 ± 0.7 s and the IC50 (Shaker-IR channel) was ~3 mM and 2.7 mM. For the same compound, the “Hill coefficient of IK inhibition concentration-response curve” value (Shaker-IR channel) was 1.13 ± 0.22, the “Hill coefficient of gating charge reduction concentration-response curve” value (Shaker-IR-W434F [2]) was 1.5 ± 0.2 and the “maximal reduction in charge movement” value (Shaker-IR-W434F [2]; 30 mM 1-HeOH) was about 12%. For the same compound, the “τIGdeac at −120 mV” value (Shaker-IR-W434F [2]; 30 mM 1-HeOH) was 0.53 ± 0.10 ms, the “QV curve V1/2” value (Shaker-IR-W434F [2]; 30 mM 1-HeOH) was −31.4 ± 0.9 mV and the “gating charge immobilized (reduction in gating charge movement)” value (Shaker-IR-W434F [2]) was 10%. The IC50 (Shaker-IR-W434F [2]; [5]) was 13.8 ± 1.6 mM, the “Hill coefficient of τIGdeac concentration-response curve” value (Shaker-IR-W434F [2]; weighted τIGdeac at −90 mV) was 1.6 ± 0.3 and the IC50 (Shaker-IR-W434F [2]; [6]) was 3 ± 0.4 mM. The “QV curve 1st comp V1/2” value (Shaker-IR-W434F-P475A; 30 mM 1-HeOH) was −35.3 ± 1.5 mV, the “QV curve 2nd comp V1/2” value (Shaker-IR-W434F-P475A; 30 mM 1-HeOH) was 50.2 ± 1.1 mV and the “QV curve 2nd comp k” value (Shaker-IR-W434F-P475A; 30 mM 1-HeOH) was 3.6 ± 1.4 mV.

In the case of Nc1ccncc1 [4-AP, 4-aminopyridine], the “reduction in gating charge movement” value (Shaker-IR-W434F [3]) is given as 10%, the inhibition at 30 µM (Shaker-IR channel; HEK293, read-out: steady-state IK inhibition) is given as about 50% and the “loss of gating charge movement” value (Shaker-IR-W434F [2]; 1 mM 4-AP) is given as “approximately 10%”. For the same compound, the “sensitivity of the P475A mutant to the drug” value (Shaker-IR-P475A [4]) was “insensitive”.

Reference: publication PMC4663795, “Alkanols inhibit voltage-gated K^+ channels via a distinct gating modifying mechanism that prevents gate opening” (Scientific Reports, 2015)
